{"source": "patent US11419834B2", "about": "“Methods for treating diseases or infections caused by or associated with H. pylori using a halogenated salicylanilide” (Rhode Island Hospital, priority 2019, dated 2022)", "key": {"H. Pylori 43504": {"system": "H. Pylori 43504", "test": "Broth microdilution assay, MIC", "assay_type": "cell-based", "settings": "Helicobacter pylori; strain H. Pylori 43504"}, "H. pylori strain 60190": {"system": "H. pylori strain 60190", "test": "Minimum bactericidal concentration (plating from MIC assay)", "assay_type": "cell-based, Helicobacter pylori", "settings": "Helicobacter pylori; H. pylori strain 60190; read-out: MBC"}, "[1]": {"system": "H. pylori cells (strain 60190)", "test": "Motility assay in soft agar", "assay_type": "cell-based, Helicobacter pylori", "settings": "for H. pylori motility (swarming) versus concentration: niclosamide from 0.10 to 0.20 μg/mL (75-200 ng/mL in soft agar)"}, "H. pylori (strain 60190)": {"system": "H. pylori (strain 60190)", "test": "Effect of pH on MIC (broth microdilution)", "assay_type": "cell-based, Helicobacter pylori", "protocol": "The pH was adjusted to acidic condition with 1 N HCl. The minimal bactericidal concentration (MBC) was determined by plating 5 μL of broth culture from the MIC assay onto Müller-Hinton agar (BD Biosciences) supplemented with 10% FBS. After 72 h, the lowest concentration at which colonies were not observed was reported as the MBC."}, "[2]": {"system": "AGS cells invaded by H. pylori", "test": "Invasion, gentamicin protection assay", "assay_type": "cell-based, Helicobacter pylori", "settings": "2×MIC, 0.5 μg/mL, 20 hours, AGS cell lines", "protocol": "(§1) The AGS (Gastric adenocarcinoma cell lines) cell line was used to examine inhibition of adhesion and invasion of H. pylori (strain 60190) by niclosamide, as described by Schmitt et al. (Front Cell Infect Microbiol. 2013; 3:93). The AGS cells were grown in Dulbecco's Modified Eagle Medium (DMEM, ex. Gibco), supplemented with 10% fetal bovine serum (Gibco) and 1% penicillin/streptomycin (Gibco) and maintained at 37° C. in 5% C02. Then, 5×10^5 cells in antibiotic and serum-free DMEM were seeded in 6-well plates 24 hours prior to infection. H. pylori bacteria at a multiplicity of infection (MOI)=100 were added and allowed to adhere to the surface of the AGS cells. Planktonic bacteria were removed after 2 hours and DMEM with niclosamide (2×MIC) was then added to the wells containing the AGS. The mammalian cells were lysed by 0.1% saponin after 20 hours of incubation and the adhered bacteria were then serially diluted, plated in Brucella agar supplemented with 10% FBS, and incubated as described above. A control arm of DMSO and a comparator using amoxicillin at a concentration of 0.1 μg/mL (10×MIC) was also assessed. […]"}, "[3]": {"system": "H. pylori (strain 60190) adhered to AGS cells", "test": "Adhesion of H. pylori to AGS cells", "assay_type": "cell-based, Helicobacter pylori", "settings": "niclosamide 2×MIC, 20 hours, MOI=100", "protocol": "as §1"}, "[4]": {"system": "H. pylori bacteria (strain 60190)", "test": "Multi-step mutation frequency (serial passage resistance study)", "assay_type": "cell-based, Helicobacter pylori", "protocol": "To determine whether H. pylori can develop resistance against niclosamide, bacterial cells were suspended in MHB with 10% FBS at OD600=0.06 in the presence of serially diluted niclosamide and incubated, as described in the antibiotic susceptibility assays sub-section. The standard antibiotics amoxicillin and clarithromycin were used as controls. From the highest drug concentration allowing visible growth at sub-MIC concentration, aliquots were diluted (1:40) into fresh medium. These were used to inoculate the second set of serial drug dilutions as described by Dalhoff et al. (Clin Infect Ds. 2001 Mar. 15; 32 Suppl, 1:S16-22). After a 3-day incubation, H. pylori bacteria (strain 60190) were passaged sequentially over 30 days and the OD was recorded."}, "[5]": {"system": "H. pylori reference strain 60190 (ATCC 49503)", "test": "Broth microdilution assay, MIC", "assay_type": "cell-based", "settings": "Helicobacter pylori, ATCC49503, 72 h; H. pylori strain 60190; Müller-Hinton broth + 10% FBS, 3 days"}, "[6]": {"system": "H. pylori bacteria (strain 60190)", "test": "Time to kill assay", "assay_type": "cell-based, Helicobacter pylori", "settings": "4×MIC (1 μg/mL); 10^9 cells/mL", "protocol": "Niclosamide was therefore tested time to kill assays were used to confirm the killing properties of niclosamide against H. pylori. Agar grown H. pylori bacteria (strain 60190) were suspended in fresh Mueller Hinton Broth (MHB) with 10% Fetal bovine serum (FBS) to a density of 10^9 cells/mL and placed into 10 mL tubes (BD Biosciences). […] Aliquots were periodically drawn from the tubes, serially diluted and plated onto Brucella agar (BD Biosciences) supplemented with 10% FBS. CFUs were counted after a 3-day incubation and assays were carried out in duplicate. […] Of note, clarithromycin, a commonly prescribed antibiotic for H. pylori treatment, is also bacteriostatic (De Francesco et al. World journal of gastrointestinal pathophysiology 2, 35 (2011))."}, "[7]": {"system": "IL-8 secretion from MKN-28 cells co-cultured with H. pylori", "test": "IL-8 secretion, real-time RT-PCR", "assay_type": "cell-based", "settings": "4×MIC, 1.0 μg/mL, 24 hour incubation, H. pylori infected MKN-28 cells", "protocol": "Real-Time (RT-PCR) was carried out to determine whether niclosamide has an inhibitory role in IL-8 secretion. MKN-28 cells were co-cultured with H. pylori (MOI=100) in the presence or absence of a test compound. At 24 hours, RNA was isolated from the infected host cells. cDNA was synthesized using the Verso cDNA (Invitrogen) synthesis kit according to manufacturer instructions. Quantitative real-time reactions were carried out in a Bio-Rad iTaq universal SYBR (Bio-Rad, Hercules, Calif. USA) one-step kit and a CFX98 real-time PCR cycler as described by Zheng et al. (Future Med. Chem. 2018, February; 10(3):283-296). The relative gene expression was calculated from Cq values using a ΔΔCq method."}, "H. Pylori 49503": {"system": "H. Pylori 49503", "test": "Broth microdilution assay, MIC", "assay_type": "cell-based", "settings": "Helicobacter pylori; strain H. Pylori 49503"}}, "data": [{"smiles": "O=C(Nc1ccc([N+](=O)[O-])cc1Cl)c1cc(Cl)ccc1O", "note": "[Niclosamide, niclosamide]", "values": [{"measurement": "MIC", "setting": "H. Pylori 43504", "result": 0.125, "unit": "µg/mL"}, {"measurement": "MBC", "setting": "H. pylori strain 60190", "result": 0.5, "unit": "µg/mL"}, {"measurement": "H. pylori motility (swarming) versus concentration", "setting": "[1]", "result": "impeded H. Pylon swarming movement in a dose-dependent manner"}, {"measurement": "H. pylori motility (swarming) versus concentration", "setting": "[1]; listed as niclosamide", "result": "decreased in a dose-dependent manner"}, {"measurement": "H. pylori motility", "setting": "[1]; sub-MIC (0.2 μg/mL)", "result": "abated"}, {"measurement": "MIC", "setting": "H. pylori (strain 60190); Helicobacter pylori, acidic pH, tested between pH 7.0 to 5.2, read-out: MIC in low pH", "result": 0.25, "unit": "µg/mL"}, {"measurement": "change of MIC at acidic pH compared to pH 7.0", "setting": "H. pylori (strain 60190); pH 7.0 to 5.2", "result": "remained the same"}, {"measurement": "reduction of intracellular CFU", "setting": "[2]", "result": 3, "unit": "log10 CFU"}, {"measurement": "reduction of CFU/mL counts of adhered bacteria", "setting": "[3]", "result": 3, "unit": "log10"}, {"measurement": "development of H. pylori resistance", "setting": "[4]; 30 day resistance studies", "result": "no H. pylori resistance to niclosamide developed"}, {"measurement": "change in MIC through at least 10 passages", "setting": "[4]; at least 10 passages", "result": "remained constant"}, {"measurement": "increase in MIC during continuous passage", "setting": "[4]; passaged sequentially over 30 days", "result": "remained unchanged"}, {"measurement": "MIC", "setting": "[5]", "result": 0.25, "unit": "µg/mL"}, {"measurement": "killing kinetics (bacteriostatic or bactericidal)", "setting": "[6]", "result": "bacteriostatic"}, {"measurement": "effect on IL-8 secretion", "setting": "[7]", "result": "inhibited IL-8 secretion"}, {"measurement": "MIC", "setting": "H. Pylori 49503", "result": 0.25, "unit": "µg/mL"}]}]}
